For experiment [1], the target named is T1, full-length human P2X5 receptor (hP2X5^FL) (Homo sapiens, UniProt Q93086, F216L/F232L). In words: cell-based. Also noted: gene P2RX5.
The target in experiment [2] is T1, full-length human P2X5 receptor (hP2X5^FL). In words: two-microelectrode voltage clamp, Xenopus laevis oocytes (agonist concentration-response). It counts as cell-based. Also noted: gene P2RX5; His-hP2X5^FL, full-length 444 residues including exon 10 (residues 328–349), N-terminal hexahistidine tag; homotrimer.
For experiment [3] the target is unchanged. As to the kind of experiment: two-microelectrode voltage clamp, Xenopus laevis oocytes; potentiation of ATP-induced current at […]. It counts as cell-based. Also noted: gene P2RX5; His-hP2X5^FL, full-length 444 residues including exon 10 (residues 328–349), N-terminal hexahistidine tag; homotrimer.

T1 sequence (Q93086 whole entry F216L/F232L, the tested form may be a part): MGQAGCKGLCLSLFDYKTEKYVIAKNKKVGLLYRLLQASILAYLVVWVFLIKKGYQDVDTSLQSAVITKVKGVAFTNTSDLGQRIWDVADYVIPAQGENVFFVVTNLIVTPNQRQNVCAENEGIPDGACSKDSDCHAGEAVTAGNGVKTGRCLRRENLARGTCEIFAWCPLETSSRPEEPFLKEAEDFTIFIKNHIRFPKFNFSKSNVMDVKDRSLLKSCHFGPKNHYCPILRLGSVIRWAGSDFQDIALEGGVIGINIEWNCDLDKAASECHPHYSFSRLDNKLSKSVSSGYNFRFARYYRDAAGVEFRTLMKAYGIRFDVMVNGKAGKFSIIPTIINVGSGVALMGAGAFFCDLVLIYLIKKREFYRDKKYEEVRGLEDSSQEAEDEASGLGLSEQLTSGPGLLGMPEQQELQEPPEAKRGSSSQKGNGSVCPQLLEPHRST

`Nc1ncnc2c1ncn2[C@@H]1O[C@H](COP(=O)(O)OP(=O)(O)OP(=O)(O)O)[C@@H](O)[C@H]1O` [ATP] displayed an EC50 in experiment [1] of around 39 µM.
Regarding `Nc1ncnc2c1ncn2[C@@H]1O[C@H](COP(=O)(O)OP(=O)(O)OP(=O)(O)O)[C@@H](OC(=O)c2ccc(C(=O)c3ccccc3)cc2)[C@H]1O` [BzATP], the “two-microelectrode voltage clamp, Xenopus laevis oocytes (agonist concentration-” value in experiment [2] is reported as “BzATP, displayed a higher affinity for hP2X5^FL than ATP but a lower efficacy”.
In the case of `COC(=O)C1=C(C)NC(C)=C(C(=O)OC(C)C)C1c1cccc2nonc12` (stereo not drawn) [isradipine], the “two-microelectrode voltage clamp, Xenopus laevis oocytes; potentiation of ATP-in” value in experiment [3] is “In contrast, isradipine and nimodipine stimulated the ATP-induced currents”.

The term EC50 denotes the concentration at which the effect is half-maximal. Higher therefore signals lower potency in that assay.

These data come from article PMC8948676, “Dihydropyridines Potentiate ATP-Induced Currents Mediated by the Full-Length Human P2X5 Receptor” (Molecules, 2022).
